Publication PMC12186697, “HypoxyStat, a small-molecule form of hypoxia therapy that increases oxygen-hemoglobin affinity” (Cell, 2025)

Tested on: Ndufs4 KO mouse
Test: Ndufs4 KO mouse model of Leigh syndrome (survival, body weight, temperature, behavior, neuropathology)
Format: in vivo
Excerpt: We continuously bred Ndufs4 Het x Het mice to generate KO and controls for our experiments. Ndufs4+/− and WT mice were used as controls as they are identical in all previously reported assays. Ndufs4 mice were obtained directly from Jackson labs (#027058). Pups were weaned and genotyped at ~21 d after birth. The age of mice at the time of experiments is described throughout the text. Male and female mice were used throughout studies. All cages were provided with food and water, with hydrated gel provided to newly weaned cages. Body weights were recorded at every dosing. Mice were euthanized according to guidelines at 20% drop in peak body weight. All animal studies were approved by the Institutional Animal Care & Use Committee (IACUC) Program at UCSF/Gladstone.
Mice were administered HypoxyStat at 600 mg/kg every other day or 400mg/kg daily via oral gavage. For the disease prevention experiments, KO mice that underwent daily dosing were dosed starting ~P30 for 1 week of 200mg/kg daily, followed by 400mg/kg daily to allow for gradual dose escalation. For the reversal study, KO mice were dosed once with 200mg/kg on postnatal day ~P55, followed by 400mg/kg daily. HypoxyStat was formulated as a suspension at 60 mg/mL, 40mg/ml or 80mg/ml depending on dose in 0.5%HPMC and stored at 4 °C. The formulation was determined to be stable for at least 8 weeks. Animal body weight was taken at time of dosing to determine appropriate dosing volume (10 mL/kg for every other day dosing, 5ml/kg for daily dosing). Vehicle treated mice were administered the same volume of 0.5% HPMC.
Mice were euthanized via CO2 inhalation. To perfuse the whole body, the right atrium was nicked and a needle was inserted into the left ventricle. Ice-cold PBS was slowly injected first, followed immediately by 4% PFA solution. The brain was removed, stored in 4% PFA for 24–48 h, and then washed with PBS for 5 min (3 times). The brains were placed in 70% ethanol followed by paraffin embedding. For paraffin sections, brains were sagittally sectioned at 5 μm thickness. Prior to staining, sections were deparaffinized. Antigen retrieval was performed by heating the slides to boiling temperature in 10 mM sodium citrate solution (pH 6) in a microwave, followed by heating for 10 minutes. The sections were rinsed 3 times for 5 minutes each with PBS. They were then incubated in a blocking solution containing 5% donkey serum (DS) in PBS-Tx (PBS with 0.2% Triton X-100) for 60 minutes at room temperature. After blocking, sections were incubated overnight at 4C with the primary antibody IBA1 (Genetex GTX100042, 1:250) and NeuN (Sigma, MAB377, 1:500). Afterward, the sections were rinsed 3 times for 5 minutes with PBS-Tx. Next, they were incubated with a fluorophore-conjugated secondary antibodies (Invitrogen, A21206 or A31570) for 1 hour at room temperature. Following secondary antibody incubation, the sections were rinsed 3 times for 5 minutes with PBS-Tx, and then once for 5 minutes with PBS. Histology was quantified using either the percentage of Iba1+ positive signal or blinded scoring (on the scale of 1–5).
The open field instrument (San Diego Instruments) was used to measure spontaneous locomotor activity. Mice were placed in open field chambers and allowed to acclimate for 5 min before movement tracking for 20min. Spontaneous locomotor activity was measured based on beam breaks and recorded by the instrument. Age of measurements is +/− 5 days for practical purposes without any age bias between groups.

SMILES: O=Cc1ccccc1C(=O)N1CCCC[C@H]1COc1cccc(O)c1C=O [HypoxyStat]
- lifespan increase of Ndufs4 KO mice (400 mg/kg daily oral gavage from P30 (1 week at 200 mg/kg)): 3–4 ×
- tolerability of chronic dosing in control (WT or heterozygous) mice (600 mg/kg every other day or 400 mg/kg daily, all control mice survived): well tolerated
- lifespan increase of Ndufs4 KO mice (600 mg/kg every other day oral gavage from P30): 1.5–2 ×
- body temperature of Ndufs4 KO mice (HypoxyStat from P30): restored body temperature to normal levels
- motor coordination (rotarod) and spontaneous activity (open field) of KO mice (HypoxyStat from P30): significantly improved motor coordination and spontaneous activity
- body weight of drug-treated KO mice (HypoxyStat from P30, comparable with inhaled hypoxia): increased body weight
- lesion severity (Iba1 staining for microglial activation) at P50 (KO mice treated from P30, p < 0.05 vs vehicle): significant reduction in lesion severity
